Assay results: publication PMC9791335 (Heliyon, 2022)

Molecular target: lysine-specific demethylase 1 (LSD1) (Homo sapiens, UniProt O60341)
Test: HRP-coupled fluorescence
Assay type: biochemical

% inhibition at 10 μM: 76.5
SMILES: COc1cc(CNC(=O)CCCCCCC(C)C)ccc1O [DHC, dihydrocapsaicin]
